US11945847B2, “Optogenetic induction of neurodegenerative disease pathologies” (UNIVERSITY OF PITTSBURGH—OF THE COMMONWEALTH SYSTEM OF …, priority 2017, dated 2024)

Columns and labels:
[1] = Aggregation potential of CRY2 or VVD fusion proteins by protein arrangement; format: cell-based; conditions: protein arrangement and light stimulation paradigm
Description: FIGS. 9A-9B show the aggregation potential of CRY2 or VVD fusion proteins based on the protein arrangement and light stimulation paradigm combination. Studies indicate that the ability of Cry2 or VVD photoreceptor to stimulate clustering and activation are dependent on the protein arrangement as well as the light stimulation paradigm.

live cells = experiment: Blue light-induced clustering/aggregation of CRY2OLIG constructs visualized in live cells; format: cell-based; conditions: specific blue light stimulation paradigms
Description: FIGS. 2A-2B describe methods to generate neuropathological aggregate proteins containing an LCD/IDR/Prion-like domain with light using TDP-43 and CRY2OLIG as an example. Various protein arrangements and blue light exposure paradigms were developed to induce protein aggregation of proteins and protein fragments containing LCD/IDR/prion-like domains, promote the mislocalization of nuclear proteins and recapitulate the neuropathology of neurodegenerative diseases. TDP-43 is a predominantly nuclear protein that contains an IDR/IDD/prion-like domain, and is mislocalized and aggregated in ALS, FTD, and some AD patients, as an example. DNA sequences were engineered to generate amino acid sequences that encode for a the CRY2OLIG protein that clusters when exposed to blue light generated a fusion protein either the entire TDP-43 protein (cry2-TDP43-mCh) or just the low complexity domain (LCD/IDD/prion-like domain), which makes TDP-43 aggregation prone (Cry2-274-mCh). As a control, CRY2OLIG alone was used. All constructs were fused to a fluorescent protein called mCherry (mCh) to visualize the proteins in live cells.

HEK293 cells [2] = experiment: Fluorescence recovery after photobleaching (FRAP) of light-induced TDP-43 inclusions; format: cell-based; conditions: persistent / chronic blue light-induced inclusions
Description: (§1) FIGS. 4A-4E show light-induced aggregation of low-complexity domain proteins. Optogenetic TDP-43 fragments containing the low-complexity domain (LCD) undergo progressive aggregation with light stimulation. […] (FIGS. 4C-4D) Optogenetic LCD fragments also continue to aggregate following brief light pulses, growing in size over time. (FIG. 4E) Persistent blue light stimulation of the TDP-43 LCD forms intracellular aggregates in the cells.
FIGS. 5A-5K show chronic blue light stimulation induces optoTDP43 mislocalization and aggregation that recapitulates pathological hallmarks seen in patient CNS tissue. HEK293 cells expressing optoTDP43-mCh were exposed to 488 nm LED stimulation or darkness for up to 36 hours. […] (FIG. 5E) Fluorescence recovery after photobleaching (FRAP) imaging was performed to assess dynamicity of optoTDP43 structures. […] (FIG. 5F) Detergent-solubility of optoTDP43 structures was assessed by subcellular fractionation to confirm aggregated state of light-induced optoTDP43 granules. […] Human ReN neurons expressing TDP43-mCh or optoTDP43 were exposed to chronic blue light stimulation and viability was simultaneously monitored by longitudinal imaging.

HEK cells [3] = experiment: Light-induced oligomerization of optogenetic TDP-43 fragments, live confocal microscopy; format: cell-based; conditions: for oligomerization after a brief pulse of blue light: 8 sec, live confocal microscopy; for oligomerization after a brief pulse of blue light / persistence of oligomers: 10% laser power, 488 nm; for persistence of oligomers: after brief pulse 8 sec
Description: as §1
Beyond protein aggregation, this system creates light-induced pathologies that mimic key pathological features found in patients making it unique compared to overexpression systems. The TDP-43 protein, which contains an LCD, was combined with the CRY2OLIG photoreceptor domain which clusters when exposed to blue light and becomes insoluble and aggregated with persistent light treatment. Fusion proteins of the full length and partial LCD sequence were generated to recapitulate human neurodegenerative disease pathology, including the cytoplasmic mislocalization of nuclear proteins that occurs in patients with ALS and FTD. This system could induce neurodegenerative disease protein aggregates in live HEK cells by exposing them to various blue light stimuli paradigms (FIGS. 4-5). In addition, biochemical hallmarks of ALS, FTD, and AD (FIG. 7) were produced showing that the cell is responding to the light-induced aggregates as observed in patient CNS despite the addition of these tags. […] Employing this DNA arrangement and light stimulation system as an example, cytoplasmic TDP-43 aggregates were obtained that are also ubiquitinylated, cleaved, and hyperphosphorylated as observed in ALS, FTD, and AD patients. TDP-43 pathology is also found in AD as well as Chronic Traumatic Encephalopathy (CTE) thus highlighting the potential disease relevance of this work. In addition, a protein arrangement and light stimulation paradigm was developed to induce the aggregation of α-synuclein (FIG. 6), which is found in the CNS of patients diagnosed with Parkinson's Disease and Lewy Body Dementia. Methods were also developed to induce intracellular aggregation of Tau protein using both the Cry-PHR and LOV photoreceptors (FIG. 7) and persistent blue light stimulation. These tau tangles are pathological hallmarks of AD, FTD and CTE in HEK cells. […] Finally, it was shown that this method can be utilized to seed aggregations, as aggregates of TDP-43 formed using this method recruit endogenous TDP-43 to seed the pathogenic neuropathology (FIGS. 5F, 5G).

HEK cells [4] = experiment: Acute blue light stimulation: pathological aggregate formation and toxicity; format: cell-based
Description: FIG. 10B is a schematic of a screening pipeline to use the induction of neurodegenerative disease pathology to identify therapeutic compounds that rescue toxicity and prevent or remove the formation of the induced neurodegenerative disease pathology.

HEK293 cells [5] = experiment: Detergent-solubility by subcellular fractionation; format: cell-based; conditions: with and without light treatment; chronic blue light stimulation
Experimental: (§2) FIGS. 5A-5K show chronic blue light stimulation induces optoTDP43 mislocalization and aggregation that recapitulates pathological hallmarks seen in patient CNS tissue. HEK293 cells expressing optoTDP43-mCh were exposed to 488 nm LED stimulation or darkness for up to 36 hours. […] (FIG. 5E) Fluorescence recovery after photobleaching (FRAP) imaging was performed to assess dynamicity of optoTDP43 structures. […] (FIG. 5F) Detergent-solubility of optoTDP43 structures was assessed by subcellular fractionation to confirm aggregated state of light-induced optoTDP43 granules. […] In addition to increased insolubility of exogenous, full-length optoTDP43 (top band), chronic blue light exposure also results in recruitment of aberrant optoTDP43 cleavage products (middle bands), as well as endogenous full-length TDP-43 and disease-relevant cleavage products (bottom bands), to the detergent-insoluble, urea-soluble fraction of cell lysates as is observed in patient tissue. (FIG. 5G) To confirm direct recruitment of non-optogenetic TDP-43 species to exogenous light-induced optoTDP43 inclusions, EGFP-tagged TDP-43 was co-expressed with optoTDP43 or the Cry2 photoreceptor-only control. […] Human ReN neurons expressing TDP43-mCh or optoTDP43 were exposed to chronic blue light stimulation and viability was simultaneously monitored by longitudinal imaging.

Human ReN neurons = experiment: Neurotoxicity by automated high-throughput confocal longitudinal imaging; format: cell-based; conditions: chronic blue light stimulation
Experimental: as §2

HEK293 cells [6] = experiment: Immunofluorescence analysis of pathological hallmarks of light-induced optoTDP43 aggregates; format: cell-based
Experimental: FIGS. 5A-5K show chronic blue light stimulation induces optoTDP43 mislocalization and aggregation that recapitulates pathological hallmarks seen in patient CNS tissue. HEK293 cells expressing optoTDP43-mCh were exposed to 488 nm LED stimulation or darkness for up to 36 hours. […] (FIG. 5E) Fluorescence recovery after photobleaching (FRAP) imaging was performed to assess dynamicity of optoTDP43 structures. […] (FIG. 5F) Detergent-solubility of optoTDP43 structures was assessed by subcellular fractionation to confirm aggregated state of light-induced optoTDP43 granules. […] In addition to increased insolubility of exogenous, full-length optoTDP43 (top band), chronic blue light exposure also results in recruitment of aberrant optoTDP43 cleavage products (middle bands), as well as endogenous full-length TDP-43 and disease-relevant cleavage products (bottom bands), to the detergent-insoluble, urea-soluble fraction of cell lysates as is observed in patient tissue. (FIG. 5G) To confirm direct recruitment of non-optogenetic TDP-43 species to exogenous light-induced optoTDP43 inclusions, EGFP-tagged TDP-43 was co-expressed with optoTDP43 or the Cry2 photoreceptor-only control. […] (FIG. 5H-5J) Immunofluorescence analysis was performed on light-induced optoTDP43 aggregates to confirm pathological hallmarks seen in patient tissue. optoTDP43 inclusions appear to be (FIG. 5H) ubiquitinated, (FIG. 5I) hyperphosphorylated, and (FIG. 5J) p62-positive, all of which have been observed with TDP-43 inclusions in patient CNS. (FIG. 5K) Automated high-throughput confocal microscopy was performed to assess the neurotoxicity of light-induced optoTDP43 inclusions. Human ReN neurons expressing TDP43-mCh or optoTDP43 were exposed to chronic blue light stimulation and viability was simultaneously monitored by longitudinal imaging.

EGFP-tagged TDP-43 = target: T1, EGFP-tagged TDP-43 (Homo sapiens, UniProt Q13148); experiment: Recruitment of co-expressed EGFP-tagged TDP-43 to light-induced inclusions (co-localization); format: cell-based; conditions: chronic blue light stimulation
T1 construct: expressed in transfected cells
Experimental: as §2

HEK293 cells [7] = experiment: Chronic blue light stimulation: optoTDP43 mislocalization and aggregation; format: cell-based
Experimental: as §2

[8] = cited from earlier work
[9] = target: the molecule itself; experiment: self-association in live cells on blue light, mCherry fluorescence

T1 sequence (Q13148 whole entry): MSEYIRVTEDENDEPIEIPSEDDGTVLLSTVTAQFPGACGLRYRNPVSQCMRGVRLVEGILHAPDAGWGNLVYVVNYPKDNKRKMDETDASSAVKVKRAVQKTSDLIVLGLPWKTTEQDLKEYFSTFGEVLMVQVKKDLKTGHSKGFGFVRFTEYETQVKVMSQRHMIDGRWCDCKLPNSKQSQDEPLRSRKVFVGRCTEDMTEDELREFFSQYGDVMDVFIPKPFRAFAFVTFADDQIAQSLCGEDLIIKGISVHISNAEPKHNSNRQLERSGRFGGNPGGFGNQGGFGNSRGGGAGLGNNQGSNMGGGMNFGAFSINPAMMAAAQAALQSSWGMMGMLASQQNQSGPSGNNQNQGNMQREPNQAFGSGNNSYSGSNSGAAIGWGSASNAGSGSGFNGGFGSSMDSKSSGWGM

Molecule: TDP-43-CRY2OLIG-mCh: full length TDP-43, Cry2olig, mCherry reporter arrangement
- ability to aggregate [1]: mislocalizes but does not exhibit the ability to aggregate

Molecule: optoLCD: CRY2OLIG fused to just the low complexity domain of TDP-43 and mCherry
- clustering / aggregation with blue light stimulation (reversibility) (live cells): forms irreversible aggregates
- fluorescence recovery after photobleaching (FRAP) (HEK293 cells [2]): do not recover from FRAP
- oligomerization after a brief pulse of blue light (HEK cells [3]): rapidly oligomerize
- persistence of oligomers (HEK cells [3]): persist much longer than the Cry2 photoreceptor alone
- time to formation of pathological aggregates (HEK cells [4]; acute stimulation): ≤ 1 hour
- toxicity of aggregates (HEK cells [4]; aggregates grow in size over time): become toxic over time

Molecule: optoRRM2+LCD: Optogenetic C-terminal fragment of TDP-43 containing RRM2 and the low-complexity domain
- oligomerization after a brief pulse of blue light (HEK cells [3]): rapidly oligomerize
- persistence of oligomers (HEK cells [3]): persist much longer than the Cry2 photoreceptor alone

Molecule: optoTDP43: CRY2OLIG fused to the entire TDP-43 protein and mCherry
- detergent-solubility (HEK293 cells [5]): drastic shift to the insoluble fraction
- clustering / aggregation with blue light stimulation (reversibility) (live cells): forms irreversible aggregates
- neuron survival / viability (Human ReN neurons): significantly decreased viability over time
- p62 staining of inclusions (HEK293 cells [6]): p62-positive
- phosphorylation of inclusions (HEK293 cells [6]): hyperphosphorylated
- ubiquitination of inclusions (HEK293 cells [6]): ubiquitinated
- fluorescence recovery after photobleaching (FRAP) (HEK293 cells [2]): Lack of fluorescence recovery
- co-localization with EGFP-TDP43 (EGFP-tagged TDP-43): strong co-localization
- localization (HEK293 cells [7]; 488 nm LED stimulation up to 36 hours, confirmed by nuclear/cytoplasmic fractionation): gradual cytoplasmic mislocalization
- aggregation (HEK293 cells [7]; simultaneous chronic blue light exposure and high-throughput automated confocal microscopy): increases in propensity with increasing light exposure

B1: NcVVDY50W: NcVivid Y50W substitution (protein)
chain: HTLYAPGGYDIMGWLIQIMNRPNPQVELGPVDTSCALILCDLKQKDTPIVYASEAFLYMTGYSNAEVLGRNCRFLQSPDGMVKPKSTRKYVDSNTINTMRKAIDRNAEVQVEVVNFKKNGQRFVNFLTMIPVRDETGEYRYSMGFQCETE
- dissipation from the dimerized state ([8]; Y50W change): slower ability to dissipate from the dimerized state

B2: CRY2OLIG-mCh (other)
chain: MKMDKKTIVWFRRDLRIEDNPALAAAAHEGSVFPVFIWCPEEEGQFYPGRASRWWMKQSLAHLSQSLKALGSDLTLIKTHNTISAILDCIRVTGATKVVFNHLYDPVSLVRDHTVKEKLVERGISVQSYNGDLLYEPWEIYCEKGKPFTSFNSYWKKCLDMSIESVMLPPPWRLMPITAAAEAIWACSIEELGLENEAEKPSNALLTRAWSPGWSNADKLLNEFIEKQLIDYAKNSKKVVGNSTSLLSPYLHFGEISVRHVFQCARMKQIIWARDKNSEGEESADLFLRGIGLREYSRYICFNFPFTHEQSLLSHLRFFPWDADVDKFKAWRQGRTGYPLVDAGMRELWATGWMHNRIRVIVSSFAVKFLLLPWKWGMKYFWDTLLDADLECDILGWQYISGSIPDGHELDRLDNPALQGAKYDPEGEYIRQWLPELARLPTEWIHHPWDAPLTVLKASGVELGTNYAKPIVDIDTARELLAKAISRTRGAQIMIGAA
notes: also called Cry2-mCh; Cry2 photoreceptor-only control; not shown: mCherry reporter and any linker
- binding result [9]: binds

B3: CRY2OLIG: Cryptochrome 2 PHR Domain with E490G substitution (protein)
chain: MKMDKKTIVWFRRDLRIEDNPALAAAAHEGSVFPVFIWCPEEEGQFYPGRASRWWMKQSLAHLSQSLKALGSDLTLIKTHNTISAILDCIRVTGATKVVFNHLYDPVSLVRDHTVKEKLVERGISVQSYNGDLLYEPWEIYCEKGKPFTSFNSYWKKCLDMSIESVMLPPPWRLMPITAAAEAIWACSIEELGLENEAEKPSNALLTRAWSPGWSNADKLLNEFIEKQLIDYAKNSKKVVGNSTSLLSPYLHFGEISVRHVFQCARMKQIIWARDKNSEGEESADLFLRGIGLREYSRYICFNFPFTHEQSLLSHLRFFPWDADVDKFKAWRQGRTGYPLVDAGMRELWATGWMHNRIRVIVSSFAVKFLLLPWKWGMKYFWDTLLDADLECDILGWQYISGSIPDGHELDRLDNPALQGAKYDPEGEYIRQWLPELARLPTEWIHHPWDAPLTVLKASGVELGTNYAKPIVDIDTARELLAKAISRTRGAQIMIGAA
- efficiency of clustering upon blue light stimulation ([8]; E490G mutation versus endogenous sequence): slightly increased efficiency of clustering

B4: Cry2-mCh: As a control, CRY2OLIG alone fused to mCherry (protein)
chain: MKMDKKTIVWFRRDLRIEDNPALAAAAHEGSVFPVFIWCPEEEGQFYPGRASRWWMKQSLAHLSQSLKALGSDLTLIKTHNTISAILDCIRVTGATKVVFNHLYDPVSLVRDHTVKEKLVERGISVQSYNGDLLYEPWEIYCEKGKPFTSFNSYWKKCLDMSIESVMLPPPWRLMPITAAAEAIWACSIEELGLENEAEKPSNALLTRAWSPGWSNADKLLNEFIEKQLIDYAKNSKKVVGNSTSLLSPYLHFGEISVRHVFQCARMKQIIWARDKNSEGEESADLFLRGIGLREYSRYICFNFPFTHEQSLLSHLRFFPWDADVDKFKAWRQGRTGYPLVDAGMRELWATGWMHNRIRVIVSSFAVKFLLLPWKWGMKYFWDTLLDADLECDILGWQYISGSIPDGHELDRLDNPALQGAKYDPEGEYIRQWLPELARLPTEWIHHPWDAPLTVLKASGVELGTNYAKPIVDIDTARELLAKAISRTRGAQIMIGAA
modifications: left off: large carriers
notes: As a control, CRY2OLIG alone fused to mCherry
- clustering / aggregation with blue light stimulation (reversibility) (live cells): reversibly clusters
- co-localization with EGFP-TDP43 (EGFP-tagged TDP-43): no co-localization
- disassembly (HEK cells [3]; after brief pulse of blue light): ~10 min
